Test results reported in patent US20150140015A1, “METHODS AND PHARMACEUTICAL COMPOSITIONS FOR THE TREATMENT OF PANCREATIC CANCER” (INSERM (Institut National de la Sante et de la Recherche …, priority 2013, published 2015).

How the values were obtained:
AsPC-1 cells = assay: Cell growth of AsPC-1 cells (cell counting); assay type: cell-based, human; conditions: Example 1; Orexin-A treatment of the OX1R-expressing AsPC-1 cell line
Experimental: FIG. 9. Effect of Orexin-B anti-OX1R antibodies on cell growth of AsPC-1 cells. Cells were incubated with 0.1 μM of OxB or antibodies for 48 h in culture medium and then cells were counted in order to estimate the cellular growth.
The aims of this study were: 1/ to investigate the presence of OX1R in human PAC cell lines and to analyze orexin-A effects in relation to apoptosis; 2/ to develop an in vivo heterotopic xenograft model from the cell lines expressing OX1R, for the study of tumor growth in response to Orexin-A. The expression of OX1R was studied at mRNA (RT-PCR), proteins (immunocytochemistry) and functional levels in 3 PAC cell lines (AsPC-1, HPAF-II and SW1990). The development of an animal model (heterotopic xenograft) from the cell line expressing OX1R, has allowed studying the effect of Orexin-A in tumor growth. Resected tumors were analyzed by immunohistochemistry. Only AsPC-1 cell line expresses OX1R.
The development of antibodies directed against OX1R were produced by a phage display strategy and the antibody selection was performed by using HEK and HEK stably expressing OX1R (HEK-OX1R) cell lines. […] Cells were incubated with 0.1 μM of OxB or antibodies for 48 h in culture medium and then cells were counted in order to estimate the cellular growth. […]

[1] = tested on: parental HPAF-II cells xenografted in nude mice; assay: Tumorigenicity assay: parental HPAF-II cells xenografted in nude mice; assay type: in vivo; conditions: daily treatment with 1 mole orexin-A/kg (so in the source)
Experimental: (§1) FIG. 8A-C. Effect of daily inoculation of orexin-A on the growth of tumors developed by xenografting OX1R expressing recombinant HPAF-II cells in nude mice. Parental HPAF-II (A) or recombinant OX1R/HPAF-II/cells (B) were inoculated in the flank of nude mice at day 0. Mice were injected daily intraperitoneally with 100 μl of 1 μmoles of orexin-A/Kg solutions starting at day 0 for both cell lines (◯) or day 28 for OX1R/HPAF-II cells (▴) or with 100 μl of PBS ([…]) for controls. The development of tumors was followed by caliper measurement; C. Formalin-fixed xenografted HPAF-II or OX1R/HPAF-II tumors from nude mice intraperitoneally injected daily or not with 1 μmoles/Kg orexin-A were analyzed by cleaved caspase-3 immunostaining. Cleaved caspase-3 positive cells were counted in 10 different fields, each comprising 500 tumoral cells, in the presence (black bars) or absence (white bars) of 50 days orexin-A treatment. Data are the means±SE of 6 tumors in each group; *** p<0.01 versus control.
(§2) Control mice received PBS.

[2] = tested on: recombinant HPAF-II/OX1R cells xenografted in nude mice; assay: Tumorigenicity assay: recombinant HPAF-II/OX1R cells xenografted in nude mice; assay type: in vivo
Experimental: as §1, §2
After dewaxing, rehydrating tumor paraffin sections, and antigen retrieval by pretreatment with high temperature at pH 9, immunohistochemical procedures were carried out using an automated immunohistochemical stainer according to the manufacturer's guidelines (Bond-Max slide stainer, Menarini, Leica Microsystems). For immunohistochemistry on cell lines, cells in pellets were fixed in formalin, embedded in cell blocks (Shandon Cytoblock; Thermo Scientific; USA) and cut into 3 μm sections. […] OX1R immunostaining was evaluated by two investigators (TV and AC) by calculating a score (0-300) obtained by multiplying the intensity (negative, 0; weak, 1; moderate, 2; and strong, 3) by the percentage of stained cells. The pattern of expression (cytoplasmic, membranous, and nuclear) was also recorded, and a mean score was calculated for each tumor. […] Cleaved caspase-3 immunostaining was determined by calculating the percentage of tumor cells stained in 10 fields of xenografted tumor cells, each field comprising 500 tumor cells.

[3] = tested on: AsPC-1 cells xenografted in nude mice; assay: Tumorigenicity assay: AsPC-1 cells xenografted in nude mice; assay type: in vivo

Substance: orexin-A: 33 amino acid hypothalamic neuropeptide, OX1R agonist, SEQ ID NO:2; peptide from GL Biochemicals
- cell growth inhibition (AsPC-1 cells): 32%
- tumor growth inhibition [1]: unable to promote tumor growth inhibition
- caspase-3 activation in tumors as compared to tumors from parental HPAF-II cells ([2]; 1 μmoles/Kg daily i.p., 50 days, cleaved caspase-3 positive cells): 3.5 fold
- tumor volumes, treatment of established tumors ([2]; orexin-A started after 28 days tumor growth): significant reduction in tumor volumes
- inhibition of tumor development ([2]; treated daily with orexin-A from day 0): about 65%
- tumor volume decrease under other injection frequencies ([3]; 2 or 3 injections/week (data not shown)): same results
- reduction of tumor volume versus daily injections ([3]; once or twice weekly therapy (data not shown)): equivalent or even more effective
